From ChEMBL document CHEMBL1127976, “Synthesis and anti-HCMV activity of 9-[[(ethoxyhydroxyphosphinyl)methoxy]methoxy]guanine, an isostere of PMEG monoethyl ester” (Bioorg Med Chem Lett, 1994) come the findings set out here.

The structures appear in SMILES notation. ≈ marks a conversion by molar mass, not a printed value.

Data set [1] relates to Human betaherpesvirus 5. Description: Concentration of compound required to inhibit 50% of HCMV strain AD-169 induced cytopathic effect. Type of data set: functional, organism-based.
The next data set has as its system HEL 299. Description: Compound was tested for its cytotoxicity against human embryonic lung fibroblast cells (HEL 299) by MTT dye reduction assay. It is filed as functional.
Data set [2] in a line: Therapeutic index measured as ratio of […]. As to conditions: human; read-out: Therapeutic index.
The test system of data set [3] is Human betaherpesvirus 5. Description: Concentration of compound required to inhibit 50% of HCMV strain Davis induced cytopathic effect. It is filed as functional, organism-based.
Data set [4] in a line: Therapeutic index measured as ratio of EC50 for Davis/CC50 for HEL 299. As to conditions: human; read-out: Therapeutic index.

`CCOP(=O)(O)COCOn1cnc2c(O)nc(N)nc21`: the EC50 with Human betaherpesvirus 5 [1] came to 1.8 µg/mL (≈ 5.64 µM); with Human betaherpesvirus 5 [3], 0.6 µg/mL (≈ 1.88 µM). Further, the CC50 in the data set on HEL 299 was greater than 400 µg/mL. The selectivity ratio in data set [2] is greater than 200; in data set [4] it was greater than 700.

Consider `Nc1nc2c(ncn2COC(CO)CO)c(=O)[nH]1` [GANCICLOVIR], for which the EC50 with Human betaherpesvirus 5 [1] worked out at 1.9 µg/mL (≈ 7.44 µM); with Human betaherpesvirus 5 [3] it was 0.8 µg/mL (≈ 3.13 µM). In addition, the CC50 in the data set with HEL 299 was greater than 400 µg/mL. Further, the selectivity ratio in data set [2] is greater than 200; in data set [4], greater than 500.
